{"source": "paper PMC5218480", "about": "(PLoS ONE, 2017)", "tested_on": "MV-4-11 cells", "test": "Gene expression microarray analysis (Affymetrix PrimeView) and GSEA", "type": "cell-based, human", "design": "RFU PODN (11730768_x_at) / Fold change /veh PODN (11730768_x_at) / RFU LINC00158 (11744669_a_at) / Fold change /veh LINC00158 (11744669_a_at) / RFU DUSP10 (11751237_a_at) / Fold change /veh DUSP10 (11751237_a_at) / RFU ID3 (11757404_x_at) / Fold change /veh ID3 (11757404_x_at) / RFU PLEKHG5 (11737974_s_at) / Fold change /veh PLEKHG5 (11737974_s_at) / RFU LRRC4B (11730491_at) / Fold change /veh LRRC4B (11730491_at) / RFU GIMAP4 (11747438_a_at) / Fold change /veh GIMAP4 (11747438_a_at) / RFU KRT8 (11758183_x_at) / Fold change /veh KRT8 (11758183_x_at) / RFU CNN1 (11734310_a_at) / Fold change /veh CNN1 (11734310_a_at) / RFU VPS37D (11726825_at) / Fold change /veh VPS37D (11726825_at) / RFU C10orf10 (11716522_x_at) / Fold change /veh C10orf10 (11716522_x_at) / RFU KIR2DL2 /// KIR2DL4 /// KIR2DL5A /// KIR2DL5B /// KIR2DS1 /// KIR2DS2 /// KIR2DS3 /// KIR2DS4 /// KIR3DL3 /// KIR3DL3 /// KIR3DS1 (11738374_at) / Fold change /veh KIR2DL2 /// KIR2DL4 /// KIR2DL5A /// KIR2DL5B /// KIR2DS1 /// KIR2DS2 /// KIR2DS3 /// KIR2DS4 /// KIR3DL3 /// KIR3DL3 /// KIR3DS1 (11738374_at) / RFU C1QL1 (11718748_at) / Fold change /veh C1QL1 (11718748_at) / RFU TMPRSS4 (11747572_a_at) / Fold change /veh TMPRSS4 (11747572_a_at) / RFU HAMP (11756126_x_at) / Fold change /veh HAMP (11756126_x_at) / RFU RNFT2 (11725882_a_at) / Fold change /veh RNFT2 (11725882_a_at) / RFU NR4A2 (11747474_a_at) / Fold change /veh NR4A2 (11747474_a_at) / RFU ABCC12 (11746883_a_at) / Fold change /veh ABCC12 (11746883_a_at) / RFU TMEM136 (11760407_x_at) / Fold change /veh TMEM136 (11760407_x_at) / RFU CLDN22 /// WWC2 (11732394_at) / Fold change /veh CLDN22 /// WWC2 (11732394_at) / RFU HLA-DPB1 (11760878_x_at) / Fold change /veh HLA-DPB1 (11760878_x_at) / RFU SPINT1 (11716480_a_at) / Fold change /veh SPINT1 (11716480_a_at) / RFU GAP43 (11754022_s_at) / Fold change /veh GAP43 (11754022_s_at) / RFU A4GNT (11735810_at) / Fold change /veh A4GNT (11735810_at) / RFU PRB3 (11715151_x_at) / Fold change /veh PRB3 (11715151_x_at) / RFU TUBB4B (11761932_at) / Fold change /veh TUBB4B (11761932_at) / RFU CAPN14 (11732068_a_at) / Fold change /veh CAPN14 (11732068_a_at) / RFU TMCC2 (11721928_a_at) / Fold change /veh TMCC2 (11721928_a_at) / RFU IRGQ (11745062_a_at) / Fold change /veh IRGQ (11745062_a_at) / RFU FAM174B (11720279_a_at) / Fold change /veh FAM174B (11720279_a_at) / RFU TMPRSS4 (11748680_a_at) / Fold change /veh TMPRSS4 (11748680_a_at) / RFU FAM212B (11763350_a_at) / Fold change /veh FAM212B (11763350_a_at) / RFU PLEKHG5 (11743358_a_at) / Fold change /veh PLEKHG5 (11743358_a_at) / RFU ZSCAN30 (11745921_a_at) / Fold change /veh ZSCAN30 (11745921_a_at) / RFU CMKLR1 (11741424_a_at) / Fold change /veh CMKLR1 (11741424_a_at) / RFU LOC101060620 /// MAPK8IP1 (11723275_at) / Fold change /veh LOC101060620 /// MAPK8IP1 (11723275_at) / RFU SPTSSB (11747773_x_at) / Fold change /veh SPTSSB (11747773_x_at) / RFU PRSS12 (11739890_at) / Fold change /veh PRSS12 (11739890_at) / RFU BIN1 (11741810_x_at) / Fold change /veh BIN1 (11741810_x_at) / RFU WNT11 (11732464_a_at) / Fold change /veh WNT11 (11732464_a_at) / RFU C10orf10 (11716521_a_at) / Fold change /veh C10orf10 (11716521_a_at) / RFU C5orf56 (11738089_at) / Fold change /veh C5orf56 (11738089_at) / RFU CYB561 (11721691_x_at) / Fold change /veh CYB561 (11721691_x_at) / RFU ANKRD19P (11752326_a_at) / Fold change /veh ANKRD19P (11752326_a_at) / RFU OR2T12 /// OR2T33 /// OR2T8 (11738714_s_at) / Fold change /veh OR2T12 /// OR2T33 /// OR2T8 (11738714_s_at) / RFU VCAN (11748164_a_at) / Fold change /veh VCAN (11748164_a_at) / RFU JSRP1 (11732532_at) / Fold change /veh JSRP1 (11732532_at) / RFU KRTAP10-11 (11738290_x_at) / Fold change /veh KRTAP10-11 (11738290_x_at) / RFU MYO3A (11730013_a_at) / Fold change /veh MYO3A (11730013_a_at) / RFU EBF3 (11725865_a_at) / Fold change /veh EBF3 (11725865_a_at) / RFU CAMK2N1 (11719241_x_at) / Fold change /veh CAMK2N1 (11719241_x_at) / RFU C5orf56 (11738088_a_at) / Fold change /veh C5orf56 (11738088_a_at) / RFU OLFML3 (11715873_a_at) / Fold change /veh OLFML3 (11715873_a_at) / RFU LOC100653217 /// NTM (11731650_a_at) / Fold change /veh LOC100653217 /// NTM (11731650_a_at) / RFU MAPK11 (11762145_a_at) / Fold change /veh MAPK11 (11762145_a_at) / RFU FIZ1 (11724087_x_at) / Fold change /veh FIZ1 (11724087_x_at) / RFU OASL (11726364_x_at) / Fold change /veh OASL (11726364_x_at) / RFU SOX15 (11748057_x_at) / Fold change /veh SOX15 (11748057_x_at) / RFU CD79A (11719716_a_at) / Fold change /veh CD79A (11719716_a_at) / RFU HIST1H1D (11736915_at) / Fold change /veh HIST1H1D (11736915_at) / RFU CASKIN2 (11723855_a_at) / Fold change /veh CASKIN2 (11723855_a_at) / RFU LOC730098 (11760151_x_at) / Fold change /veh LOC730098 (11760151_x_at) / RFU OR4N2 (11742367_at) / Fold change /veh OR4N2 (11742367_at) / RFU PRRT2 (11749266_a_at) / Fold change /veh PRRT2 (11749266_a_at) / RFU SNX32 (11753110_a_at) / Fold change /veh SNX32 (11753110_a_at) / RFU CDHR5 (11726645_a_at) / Fold change /veh CDHR5 (11726645_a_at) / RFU RCAN1 (11760418_a_at) / Fold change /veh RCAN1 (11760418_a_at) / RFU FAM167A (11723789_a_at) / Fold change /veh FAM167A (11723789_a_at) / RFU FAM26E (11764081_at) / Fold change /veh FAM26E (11764081_at) / RFU ISYNA1 (11749810_s_at) / Fold change /veh ISYNA1 (11749810_s_at) / RFU ACY1 (11761880_at) / Fold change /veh ACY1 (11761880_at) / RFU 11764098_at / Fold change /veh 11764098_at / RFU SAMD14 (11745864_x_at) / Fold change /veh SAMD14 (11745864_x_at) / RFU NPB (11741838_a_at) / Fold change /veh NPB (11741838_a_at) / RFU TMPRSS6 (11731388_a_at) / Fold change /veh TMPRSS6 (11731388_a_at) / RFU KRTAP10-2 (11738614_at) / Fold change /veh KRTAP10-2 (11738614_at) / RFU ARHGAP8 /// PRR5-ARHGAP8 (11727945_x_at) / Fold change /veh ARHGAP8 /// PRR5-ARHGAP8 (11727945_x_at) / RFU KRTAP5-7 /// NADSYN1 (11734609_at) / Fold change /veh KRTAP5-7 /// NADSYN1 (11734609_at) / RFU RASL12 (11751679_a_at) / Fold change /veh RASL12 (11751679_a_at) / RFU CDKN2B (11736163_a_at) / Fold change /veh CDKN2B (11736163_a_at) / RFU PRF1 (11729649_at) / Fold change /veh PRF1 (11729649_at) / RFU, ZNF638 /// ZNF638-IT1 / Fold change vs veh, ZNF638 /// ZNF638-IT1 / RFU, PANK3 / Fold change vs veh, PANK3 / RFU, SH3YL1 / Fold change vs veh, SH3YL1 / RFU, ZEB2 / Fold change vs veh, ZEB2 / RFU, NRIP1 / Fold change vs veh, NRIP1 / RFU, PTTG1IP / Fold change vs veh, PTTG1IP / RFU, CAPN2 / Fold change vs veh, CAPN2 / RFU, MED14 / Fold change vs veh, MED14 / RFU, SNORA58 / Fold change vs veh, SNORA58 / RFU, C1orf63 / Fold change vs veh, C1orf63 / RFU, LRRFIP1 / Fold change vs veh, LRRFIP1 / RFU, NDUFAF7 / Fold change vs veh, NDUFAF7 / RFU, SLC12A2 / Fold change vs veh, SLC12A2 / RFU, IBTK / Fold change vs veh, IBTK / RFU, ESF1 / Fold change vs veh, ESF1 / Fold change vs veh, TMEM50B / RFU, TAOK1 / Fold change vs veh, TAOK1 / RFU, ACBD3 / Fold change vs veh, ACBD3 / RFU, TMA16 / Fold change vs veh, TMA16 / RFU, RWDD3 / Fold change vs veh, RWDD3 / RFU, BCAT1 / Fold change vs veh, BCAT1 / RFU, EDEM3 / Fold change vs veh, EDEM3 / RFU, TMEM33 / Fold change vs veh, TMEM33 / RFU, WDR75 / Fold change vs veh, WDR75 / RFU, AHCTF1 / Fold change vs veh, AHCTF1 / RFU, TFRC / Fold change vs veh, TFRC / RFU, ZDHHC17 / Fold change vs veh, ZDHHC17 / RFU, NOM1 / Fold change vs veh, NOM1 / RFU, ARL8B / Fold change vs veh, ARL8B / RFU, ZBTB11 / Fold change vs veh, ZBTB11 / RFU, TAMM41 / Fold change vs veh, TAMM41 / RFU, KIAA1704 /// LOC100996395 / Fold change vs veh, KIAA1704 /// LOC100996395 / RFU, ING1 / Fold change vs veh, ING1 / RFU, TRMT61B / Fold change vs veh, TRMT61B / RFU, FUBP3 / Fold change vs veh, FUBP3 / RFU, TP53 / Fold change vs veh, TP53 / RFU, TNKS2 / Fold change vs veh, TNKS2 / RFU, ZFP14 / Fold change vs veh, ZFP14 / RFU, ACTR2 / Fold change vs veh, ACTR2 / RFU, PPP3R1 / Fold change vs veh, PPP3R1 / RFU, PIK3R1 / Fold change vs veh, PIK3R1 / RFU, HNRNPA1 / Fold change vs veh, HNRNPA1 / RFU, RNF170 / Fold change vs veh, RNF170 / RFU, ZNF28 / Fold change vs veh, ZNF28 / RFU, RNGTT / Fold change vs veh, RNGTT / RFU, OGT / Fold change vs veh, OGT / RFU, BRD1 / Fold change vs veh, BRD1 / RFU, MARS / Fold change vs veh, MARS / RFU, ZNF655 / Fold change vs veh, ZNF655 / RFU, FAHD1 / Fold change vs veh, FAHD1 / RFU, BDP1 / Fold change vs veh, BDP1 / RFU, LRRCC1 / Fold change vs veh, LRRCC1 / RFU, ARID1A / Fold change vs veh, ARID1A / RFU, ZNF146 / Fold change vs veh, ZNF146 / RFU, ZNF330 / Fold change vs veh, ZNF330 / RFU, GPN3 / Fold change vs veh, GPN3 / RFU, C9orf123 / Fold change vs veh, C9orf123 / RFU, N4BP2L2 / Fold change vs veh, N4BP2L2 / RFU, ARFIP1 / Fold change vs veh, ARFIP1 / RFU, FAM179B / Fold change vs veh, FAM179B / RFU, BCL10 / Fold change vs veh, BCL10 / RFU, UHRF1BP1L / Fold change vs veh, UHRF1BP1L / RFU, BET1 / Fold change vs veh, BET1 / RFU, CNOT2 / Fold change vs veh, CNOT2 / RFU, ZNF268 / Fold change vs veh, ZNF268 / Fold change vs veh, ZNF507 / RFU, DGCR2 / Fold change vs veh, DGCR2 / RFU, WDSUB1 / Fold change vs veh, WDSUB1 / Fold change vs veh, HSP90B1 /// MIR3652 / RFU, ADSS / Fold change vs veh, ADSS / RFU, GK / Fold change vs veh, GK / RFU, ZNF148 / Fold change vs veh, ZNF148 / RFU, TAF9 / Fold change vs veh, TAF9 / RFU, SLC1A5 / Fold change vs veh, SLC1A5 / RFU, SLMO2 / Fold change vs veh, SLMO2 / RFU, ABCC4 / Fold change vs veh, ABCC4 / RFU, LOC101060439 /// RAP1B / Fold change vs veh, LOC101060439 /// RAP1B / RFU, RFX7 / Fold change vs veh, RFX7 / RFU, GTPBP10 / Fold change vs veh, GTPBP10 / RFU, CNEP1R1 / Fold change vs veh, CNEP1R1 / RFU, BIVM-ERCC5 /// ERCC5 / Fold change vs veh, BIVM-ERCC5 /// ERCC5 / RFU, ILF3 / Fold change vs veh, ILF3 / RFU 11762660_at / Fold change /veh 11762660_at / RFU VCAN (11757783_s_at) / Fold change /veh VCAN (11757783_s_at) / RFU DDX43 (11728927_at) / Fold change /veh DDX43 (11728927_at) / RFU KRT8 (11758188_x_at) / Fold change /veh KRT8 (11758188_x_at) / RFU NKD1 (11759106_at) / Fold change /veh NKD1 (11759106_at) / RFU SRD5A1 (11742802_a_at) / Fold change /veh SRD5A1 (11742802_a_at) / RFU TPSAB1 /// TPSB2 (11721975_s_at) / Fold change /veh TPSAB1 /// TPSB2 (11721975_s_at) / RFU GSTM3 (11746129_a_at) / Fold change /veh GSTM3 (11746129_a_at) / RFU IL23R (11737362_x_at) / Fold change /veh IL23R (11737362_x_at) / RFU TMEM51 (11727254_a_at) / Fold change /veh TMEM51 (11727254_a_at) / RFU PIWIL2 (11732686_x_at) / Fold change /veh PIWIL2 (11732686_x_at) / RFU ORM1 (11744905_x_at) / Fold change /veh ORM1 (11744905_x_at) / RFU CCDC152 (11743942_at) / Fold change /veh CCDC152 (11743942_at) / RFU ECM1 (11717891_a_at) / Fold change /veh ECM1 (11717891_a_at) / RFU IL23R (11748794_a_at) / Fold change /veh IL23R (11748794_a_at) / RFU TNFAIP8L3 (11732012_x_at) / Fold change /veh TNFAIP8L3 (11732012_x_at) / RFU MBOAT4 (11741988_at) / Fold change /veh MBOAT4 (11741988_at) / RFU 11764193_at / Fold change /veh 11764193_at / RFU TMEM53 (11763286_at) / Fold change /veh TMEM53 (11763286_at) / RFU MAGEB2 (11727129_at) / Fold change /veh MAGEB2 (11727129_at) / RFU TMEM200A (11744735_a_at) / Fold change /veh TMEM200A (11744735_a_at) / RFU CCDC152 (11751479_a_at) / Fold change /veh CCDC152 (11751479_a_at) / RFU FAM211A (11726209_a_at) / Fold change /veh FAM211A (11726209_a_at) / RFU RGS16 (11746705_a_at) / Fold change /veh RGS16 (11746705_a_at) / RFU VCAN (11755009_s_at) / Fold change /veh VCAN (11755009_s_at) / RFU RHOB (11743442_s_at) / Fold change /veh RHOB (11743442_s_at) / RFU RGS16 (11720943_a_at) / Fold change /veh RGS16 (11720943_a_at) / RFU RGS16 (11720944_at) / Fold change /veh RGS16 (11720944_at) / RFU, VPS4B / Fold change vs veh, VPS4B / RFU, CREB1 / Fold change vs veh, CREB1 / RFU, DNAJC13 / Fold change vs veh, DNAJC13 / RFU, GNAQ / Fold change vs veh, GNAQ / RFU, CDK5R1 / Fold change vs veh, CDK5R1 / RFU, ZRANB3 / Fold change vs veh, ZRANB3 / RFU, CUL4A / Fold change vs veh, CUL4A / RFU, CCNY / Fold change vs veh, CCNY / RFU, UFL1 / Fold change vs veh, UFL1 / RFU, COG3 / Fold change vs veh, COG3 / RFU, DIAPH2 / Fold change vs veh, DIAPH2 / RFU, SKA2 / Fold change vs veh, SKA2 / RFU, AFF3 / Fold change vs veh, AFF3 / RFU, LMF1 / Fold change vs veh, LMF1 / RFU, IPO11 / Fold change vs veh, IPO11 / RFU, DFFB / Fold change vs veh, DFFB / RFU, FOXP1 / Fold change vs veh, FOXP1 / RFU, CARD8 / Fold change vs veh, CARD8 / RFU, STRN3 / Fold change vs veh, STRN3 / RFU, ADK / Fold change vs veh, ADK / RFU, RASSF2 / Fold change vs veh, RASSF2 / RFU, WIPF1 / Fold change vs veh, WIPF1 / RFU, LARP1B / Fold change vs veh, LARP1B / RFU, RASA1 / Fold change vs veh, RASA1 / RFU, RB1 / Fold change vs veh, RB1 / RFU, PPFIA1 / Fold change vs veh, PPFIA1 / RFU, MAT2A / Fold change vs veh, MAT2A / RFU, CCT5 / Fold change vs veh, CCT5 / RFU, WDR92 / Fold change vs veh, WDR92 / RFU, CUX1 / Fold change vs veh, CUX1 / RFU, TTC7A / Fold change vs veh, TTC7A / RFU, TMEM135 / Fold change vs veh, TMEM135 / RFU, DEPTOR / Fold change vs veh, DEPTOR / RFU, CPM / Fold change vs veh, CPM / RFU, DNAJB6 / Fold change vs veh, DNAJB6 / RFU, CACNA2D3 / Fold change vs veh, CACNA2D3 / RFU, DTX4 / Fold change vs veh, DTX4 / RFU, TFCP2 / Fold change vs veh, TFCP2 / RFU, GMCL1 /// GMCL1P1 / Fold change vs veh, GMCL1 /// GMCL1P1 / RFU, AEBP2 / Fold change vs veh, AEBP2 / RFU, SNHG1 /// SNORD22 /// SNORD25 /// SNORD26 /// SNORD27 /// SNORD28 /// SNORD29 /// SNORD31 / Fold change vs veh, SNHG1 /// SNORD22 /// SNORD25 /// SNORD26 /// SNORD27 /// SNORD28 /// SNORD29 /// SNORD31 / Fold change (Aza/veh), C12orf56 (ProbeSet 11735607_a_at) / Fold change (ACY-1035/veh), C12orf56 (ProbeSet 11735607_a_at) / Fold change (Aza/veh), FGFR1OP (ProbeSet 11751329_s_at) / Fold change (ACY-1035/veh), FGFR1OP (ProbeSet 11751329_s_at) / Fold change (Aza/veh), VPS36 (ProbeSet 11739960_a_at) / Fold change (ACY-1035/veh), VPS36 (ProbeSet 11739960_a_at) / RFU SYPL1 (11715823_x_at) / Fold change /veh SYPL1 (11715823_x_at) / RFU IGFBP7 (11715501_s_at) / Fold change /veh IGFBP7 (11715501_s_at) / RFU REEP3 (11722064_at) / Fold change /veh REEP3 (11722064_at) / RFU IGLL1 (11728026_x_at) / Fold change /veh IGLL1 (11728026_x_at): dose or concentration left out as unconfirmed", "conditions": "ProbeSet 11733176_x_at; LIST B", "data": [{"smiles": "Nc1ccc(-c2cccs2)cc1NC(=O)c1ccc2c(c1)cc(C1CC1)n2CCN1CCOCC1", "note": "[ACY-1035]", "values": [{"measurement": "Fold change vs veh, ZNF507", "value": 0.90}]}]}
